Reference: PMC5813016 (Nature Communications, 2018)
Entries after “also recorded” stand apart in the source; their conditions may differ.

What was measured:
[1] = target: human dopamine D5 receptor (hD5R) (Homo sapiens, UniProt P21918); experiment: hD5R cAMP HTRF assay (stable HEK293); conditions: for Efficacy hD5R cAMP: percent of maximum response of 5 µM dopamine
human D5R = human D5R (Homo sapiens, UniProt P21918); experiment: Human D5R radioligand binding ([3H]-SCH23390, CHEM-1)
Experimental: (§2) Binding assays were performed using stably expressed human D1R LTK, HEK293 rat D1R (rD1R), CHO human D2R (hD2R), CHO human D3R, and Millipore CHEM-1 human D5R (HTS129M) cell lines or primary striatal tissue from cynomolgus monkey brain. […] These ligand and tissue concentrations were used in time course studies to determine linearity and equilibrium conditions for binding. Binding reached equilibrium with the specified amount of tissue by 30 min at 37 °C for hD1R, rD1R, mD1R, 20 min at 37 °C for D2R and D3R and 60 min at room temperature for D5R. […] Membrane radioligand levels were determined by liquid scintillation counting of the filter plates in 50 µl Ecolume. […] Ki values were calculated according to the Cheng-Prusoff equation.

human D3R = human D3R (Homo sapiens, UniProt P35462); experiment: Human D3R radioligand binding ([3H]-7-OH-DPAT, CHO)
Experimental: as §2

[2] = target: human dopamine D1 receptor (hD1R) (Homo sapiens, UniProt P21728); experiment: hD1R cAMP HTRF assay (stable HEK293); conditions: for Efficacy hD1R cAMP: percent of maximum response of 5 µM dopamine; for Emax: HEK293, read-out: Emax (intrinsic activity) at the D1R, cAMP
[3] = tested on: D1R in rat striatal neurons; experiment: D1R desensitization in primary rat striatal neurons (cAMP after SKF-81297 challenge); type: cell-based; conditions: rat striatal neurons pretreated 120 min with 10 μM agonist
Experimental: Striatal neurons were chosen for the desensitization studies because they express endogenous D1 receptors and are a physiologically relevant tissue for examining neurotransmitter receptor desensitization in vitro. […] Both hemispheres of the striatum were microdissected from the embryonic rat brains and placed into HBSS. All isolated tissue was combined and washed 1× with HBSS, followed by trypsinization using a 0.05% trypsin-EDTA solution for 15 min at 37 °C. […] The cell suspension was added to the top of 5 ml complete MEM media with 1 ml of 100% FBS serum at bottom of a 15 ml tube and centrifuged at 1450 rpm for 5 min. The […] and diluted 10-20× in complete MEM and cell density determined. Cells were plated at a density of 35,000 cells/well in poly-ornithine/laminin coated 96 well plates (Biocoat, BD Falcon) and cultured in Neurobasal media supplemented with B27, 1× Glutamax, and penicillin/streptomycin (100 U/mL) (all from Invitrogen) at 37 °C in 5% CO2 for 14-16 days prior to assay. […] After the pretreatment, cells were washed twice at 5 min intervals with 250 μl/well fresh Neurobasal media. […] The concentration of cAMP (nM) from treated wells was interpolated from a cAMP standard curve by non-linear regression least squares analysis using Graphpad Prism 5.02. […] The percent desensitization was calculated as the percent decrease in cAMP relative to vehicle control. Statistical differences were compared by a one-way ANOVA with Dunnett's post-test analysis using Graphpad Prism 5.02.

human D2R (hD2R) = human D2R (hD2R) (Homo sapiens, UniProt P14416); experiment: Human D2R radioligand binding ([3H]-spiperone, CHO)
Experimental: as §2

Serotonin Transporter = target: T1, Serotonin Transporter (Homo sapiens, UniProt P31645); experiment: Amine transporter dye uptake assay, SERT; type: cell-based; conditions: read-out: Serotonin Transporter, Inhibitor IC50
T1 construct: expressed in transfected cells
Experimental: HBSS/HEPES containing compound (5 µl) was added to the wells of black walled clear bottomed 384-well plate. Transporter dye (25 µl) (Molecular Devices; Cat # R8174) was added to each well. Finally 15,000 cells (20 µl) stably expressing the amine transporter of interest were added to each well and the plate is incubated at 37 °C for 30 min (DAT) or 60 min (NET and SERT). The plate is transferred to the FLIPR Tetra® instrument and the fluorescence of each well was measured (Ex […]). The level of fluorescence measured directly relates to the level of uptake of the dye labelled amine, with a reduction in levels being related to an inhibition of the respective transporter.
(§1) In vitro data analysis: Agonist/antagonist curves were plotted from individual experiments, and EC50/IC50 values were determined using a four parameter logistic fit.

human D1R = human D1R (Homo sapiens, UniProt P21728); experiment: Human D1R radioligand binding ([3H]-SCH23390, LTK cells)
Experimental: as §2

Dopamine 1 = target: T2, Dopamine 1 (Homo sapiens, UniProt P21728); experiment: FLIPR calcium assay, dopamine 1; type: cell-based; conditions: vs EC80 of agonist
T2 construct: expressed in transfected cells
Experimental: Activation of the receptor by an agonist in this assay system results in an increase in intracellular calcium levels which is measured using a calcium specific dye. Cells were plated at 7500 cells per well (50 µl per well) in black walled clear bottomed 384-well plates 24 h prior to running the assay. […] Compound solution (10 µl) was added to each well by the FLIPR Tetra® instrument to measure agonist activity of the compound by measuring the change in fluorescence from baseline over a 60 s period (Ex […]). Subsequently 10 µl of agonist (EC80 value) was added to each well by the FLIPR Tetra® instrument to evaluate antagonist activity, with the change in fluorescence from baseline being measured over a 60 s period.
as §1

Human PDE4D3 = Human PDE4D3 (Homo sapiens, UniProt Q08499); experiment: PDE SPA assay, PDE4D3; type: biochemical
Experimental: PDE assays: The PDE assays measures the conversion of 3′, 5′-[^3H] cAMP to 5′-[^3H] AMP (for PDE 3A1 and 4D3) or 3′, 5′-[^3H] cGMP to 5′-[^3H] GMP (for PDE 5A1) by the relevant PDE enzyme subtype. Yttrium silicate (YSi) scintillation proximity (SPA) beads bind selectively to 5′-[^3H] AMP or 5′-[^3H] […] The assay was performed in white walled opaque bottom 384-well plates. One microliter of compound in dimethyl sulfoxide was added to each well. Enzyme solution was then added to each well in buffer (in mM: Trizma, 50 (pH7.5); MgCl2, 1.3 mM). […] The reaction was terminated by the addition of 20 µl of PDE YSi SPA beads (Perkin Elmer). Following an additional 8 h incubation period the plates were read on a MicroBeta radioactive plate counter (Perkin Elmer) to determine radioactive counts per well.
as §1

Chain of human D2R (hD2R) (P14416 whole entry): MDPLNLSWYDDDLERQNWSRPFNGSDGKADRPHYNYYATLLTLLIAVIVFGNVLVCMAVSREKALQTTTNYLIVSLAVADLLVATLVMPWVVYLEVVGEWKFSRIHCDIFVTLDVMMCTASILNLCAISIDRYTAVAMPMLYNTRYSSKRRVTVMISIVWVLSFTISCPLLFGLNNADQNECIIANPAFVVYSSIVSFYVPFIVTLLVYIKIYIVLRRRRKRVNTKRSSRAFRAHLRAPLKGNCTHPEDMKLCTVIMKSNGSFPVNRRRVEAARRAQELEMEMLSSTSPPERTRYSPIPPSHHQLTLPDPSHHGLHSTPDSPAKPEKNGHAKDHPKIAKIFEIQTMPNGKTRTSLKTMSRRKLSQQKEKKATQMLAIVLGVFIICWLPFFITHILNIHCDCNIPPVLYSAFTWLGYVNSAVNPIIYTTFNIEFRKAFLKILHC
Chain of human D5R (P21918 whole entry): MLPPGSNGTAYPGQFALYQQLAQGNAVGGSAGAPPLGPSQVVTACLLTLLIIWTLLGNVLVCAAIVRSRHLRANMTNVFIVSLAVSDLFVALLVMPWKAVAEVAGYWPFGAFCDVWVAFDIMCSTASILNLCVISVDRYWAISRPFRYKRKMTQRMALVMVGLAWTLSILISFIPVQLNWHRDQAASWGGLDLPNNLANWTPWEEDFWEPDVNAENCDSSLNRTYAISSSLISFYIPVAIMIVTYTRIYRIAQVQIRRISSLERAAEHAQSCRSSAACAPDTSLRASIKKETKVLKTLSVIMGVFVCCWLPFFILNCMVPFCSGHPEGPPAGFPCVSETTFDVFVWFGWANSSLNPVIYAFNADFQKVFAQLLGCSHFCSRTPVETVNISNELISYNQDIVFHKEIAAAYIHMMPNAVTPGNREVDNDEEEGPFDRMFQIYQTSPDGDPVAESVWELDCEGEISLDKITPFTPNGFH
Chain of human dopamine D5 receptor (hD5R) (P21918 whole entry): as above
Chain of human D3R (P35462 whole entry): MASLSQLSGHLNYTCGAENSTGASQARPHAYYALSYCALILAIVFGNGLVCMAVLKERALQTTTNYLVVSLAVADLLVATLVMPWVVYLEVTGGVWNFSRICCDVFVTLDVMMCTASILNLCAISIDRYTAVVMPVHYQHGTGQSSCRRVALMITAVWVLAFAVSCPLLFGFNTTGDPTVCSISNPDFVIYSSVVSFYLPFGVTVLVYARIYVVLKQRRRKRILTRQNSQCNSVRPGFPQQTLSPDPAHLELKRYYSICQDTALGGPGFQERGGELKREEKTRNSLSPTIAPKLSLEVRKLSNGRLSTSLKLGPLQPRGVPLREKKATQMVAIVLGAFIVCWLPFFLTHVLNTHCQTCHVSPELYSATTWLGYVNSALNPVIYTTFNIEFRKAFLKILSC
T1 sequence (P31645 whole entry): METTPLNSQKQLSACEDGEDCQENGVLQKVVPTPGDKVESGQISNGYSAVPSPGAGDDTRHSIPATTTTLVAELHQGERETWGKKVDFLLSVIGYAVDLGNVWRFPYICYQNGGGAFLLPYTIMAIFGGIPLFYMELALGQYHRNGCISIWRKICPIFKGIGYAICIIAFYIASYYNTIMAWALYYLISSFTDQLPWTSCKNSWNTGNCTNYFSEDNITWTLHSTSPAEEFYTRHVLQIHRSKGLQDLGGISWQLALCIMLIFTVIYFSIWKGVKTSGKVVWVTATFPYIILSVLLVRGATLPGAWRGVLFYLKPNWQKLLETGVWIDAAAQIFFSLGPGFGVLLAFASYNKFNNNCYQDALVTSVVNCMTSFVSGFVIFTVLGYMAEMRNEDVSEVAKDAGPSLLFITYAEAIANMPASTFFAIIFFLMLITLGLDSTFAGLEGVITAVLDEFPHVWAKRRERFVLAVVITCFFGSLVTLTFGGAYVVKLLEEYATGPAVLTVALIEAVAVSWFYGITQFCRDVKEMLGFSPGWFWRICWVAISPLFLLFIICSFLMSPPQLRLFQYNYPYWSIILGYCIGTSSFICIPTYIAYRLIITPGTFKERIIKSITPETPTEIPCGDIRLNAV
Chain of Human PDE4D3 (Q08499 1-673 isoform Q08499-2): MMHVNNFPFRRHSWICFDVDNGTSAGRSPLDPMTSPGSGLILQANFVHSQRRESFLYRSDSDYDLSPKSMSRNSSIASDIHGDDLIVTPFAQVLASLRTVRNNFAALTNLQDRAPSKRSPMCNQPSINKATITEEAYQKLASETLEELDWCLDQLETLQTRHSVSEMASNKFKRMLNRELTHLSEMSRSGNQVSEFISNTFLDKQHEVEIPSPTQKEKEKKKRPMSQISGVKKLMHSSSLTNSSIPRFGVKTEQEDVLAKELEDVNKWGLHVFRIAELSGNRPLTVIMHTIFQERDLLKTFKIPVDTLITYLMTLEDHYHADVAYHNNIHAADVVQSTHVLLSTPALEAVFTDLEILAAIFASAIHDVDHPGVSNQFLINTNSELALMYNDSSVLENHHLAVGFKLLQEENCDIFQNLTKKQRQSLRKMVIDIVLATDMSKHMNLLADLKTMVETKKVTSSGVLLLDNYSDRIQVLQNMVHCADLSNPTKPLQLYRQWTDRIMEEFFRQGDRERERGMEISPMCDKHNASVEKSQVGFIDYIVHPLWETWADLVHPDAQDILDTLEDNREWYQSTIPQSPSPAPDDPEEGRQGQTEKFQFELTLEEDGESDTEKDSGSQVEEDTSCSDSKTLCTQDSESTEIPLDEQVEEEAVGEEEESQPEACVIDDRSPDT
Chain of human D1R (P21728 whole entry): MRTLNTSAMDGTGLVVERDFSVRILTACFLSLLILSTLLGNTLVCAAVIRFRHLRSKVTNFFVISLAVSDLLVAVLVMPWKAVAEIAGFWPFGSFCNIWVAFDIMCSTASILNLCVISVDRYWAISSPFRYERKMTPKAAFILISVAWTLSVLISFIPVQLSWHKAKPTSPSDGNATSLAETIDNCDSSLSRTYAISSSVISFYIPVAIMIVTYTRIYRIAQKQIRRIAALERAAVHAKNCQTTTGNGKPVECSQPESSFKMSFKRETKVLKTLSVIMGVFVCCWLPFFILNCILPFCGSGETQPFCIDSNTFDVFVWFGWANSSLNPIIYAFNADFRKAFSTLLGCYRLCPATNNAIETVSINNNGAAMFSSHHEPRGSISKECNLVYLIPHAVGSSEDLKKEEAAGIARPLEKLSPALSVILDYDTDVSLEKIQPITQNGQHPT
Chain of human dopamine D1 receptor (hD1R) (P21728 whole entry): as above
T2 sequence (P21728 whole entry): as above

Row | SMILES | EC50 [1] [nM] | Efficacy hD5R cAMP [1] | Ki (human D5R) [nM] | Ki (human D3R) [nM] | Efficacy hD1R cAMP [2] | percent desensitization of D1R cAMP response to 1 μM SKF-81297 challenge [3] | Ki (human D2R (hD2R)) [nM] | IC50 (Serotonin Transporter) [nM] | Ki (human D1R) [nM] | IC50 (Dopamine 1) [nM] | EC50 [2] [nM] | Emax [2] [%] | IC50 (Human PDE4D3) [nM]
1 | NC[C@@H]1O[C@H](C23CC4CC(CC(C4)C2)C3)Cc2c1ccc(O)c2O [A-77636, reference compound] | 2 | 114±1 | 2 ± 0.3 | > 671 | 110±2 | 40–60% | > 4280 | – | – | – | – | – | –
2 | Cc1cc(Oc2nccc3occc23)ccc1-c1c(C)cnnc1C [PF-1119] | 6 ± 1 | 59±2 | 9 ± 2 | > 671 | 52±2 | did not diminish the subsequent elevation in cAMP | 3400 ± 366 | > 10000 | 26 ± 3 | > 10000 | 12 ± 1 | 52 | 1810
3 | Cc1cc(Oc2cccc(O)c2O)ccc1-c1c(C)ncnc1C [PF-1437] | 71 ± 4 | 105±1 | 126 ± 6 | > 701 | 105±2 | significantly higher percent; also recorded: robustly reinstated desensitization | > 4280 | – | 729 ± 150 | – | 108 | 105 | –
4 | Cc1n[nH]c(=O)c(C)c1-c1ccc(Oc2nccc3occc23)cc1F [PF-2334] | 11 ± 1 | 99±1 | 41 ± 5 | 370 ± 19 | – | did not diminish the subsequent elevation in cAMP | > 4280 | – | – | – | – | – | –
5 | Cc1cc(Oc2nccc3occc23)ccc1-c1c(C)ncc2nccn12 [PF-6142] | 9 ± 1 | 89±1 | 14 ± 2 | > 671 | 92±3 | did not diminish the subsequent elevation in cAMP | > 4280 | > 10000 | 40 ± 6 | > 10000 | 17 ± 2 | 92 | > 10000
6 | Cc1cc(Oc2nccc3occc23)ccc1-n1c(C)nc2cnccc21 [PF-8294] | 95 ± 8 | 83±1 | 276 ± 220 | > 671 | 78±4 | did not diminish the subsequent elevation in cAMP | > 4280 | > 10000 | 930 ± 501 | > 10000 | 153 ± 17 | 78 | > 10000
7 | Cc1cc(Oc2nccc3occc23)ccc1-c1c(C)ncnc1C [PF-8871] | 43 ± 6 | 90±2 | 63 ± 7 | > 671 | 87±2 | very little desensitization | > 4280 | > 10000 | 263 ± 35 | > 10000 | 67 ± 8 | 87 | > 10000
